Assay results taken from publication PMC3707110 (Nature methods, 2012).
Non-standard residues stand in square brackets, D forms with d. Residues, ends and D or L forms follow the SMILES beside them. *: point of attachment. Sta = CC(C)C[C@H](N)[C@@H](O)CC(=O)O; Isovaleryl = CC(C)CC(=O)*

Key:
[1] = test system: peptidases in conditioned media from pancreatic ductal adenocarcinoma cells; type: biochemical, mouse; conditions: media pre-treated 30 minutes at room temperature with 1 μM E64, 1 μM 1,10-Phenanthroline or 400 nM pepstatin; pH 5.2; within 1200 minutes
Granzyme B = conditions: fluorescent substrate containing the sequence; previous studies; cited from earlier work

Compound: c1cnc2c(c1)ccc1cccnc12 [1,10-phenanthroline]
- effect on cleavage sites / cleavage signature of conditioned media [1]: majority of cleavage sites remained unchanged

Compound: CC(C)C[C@H](NC(=O)[C@H]1O[C@@H]1C(=O)O)C(=O)NCCCCN=C(N)N [E-64]
- effect on cleavage sites / cleavage signature of conditioned media [1]: majority of cleavage sites remained unchanged

Compound: CC(C)CC(=O)N[C@H](C(=O)N[C@H](C(=O)N[C@@H](CC(C)C)[C@@H](O)CC(=O)N[C@@H](C)C(=O)N[C@@H](CC(C)C)[C@@H](O)CC(=O)O)C(C)C)C(C)C [pepstatin] (Isovaleryl-VV[Sta]A[Sta]-OH)
- effect on cleavage sites / cleavage signature of conditioned media [1]: completely altered the cleavage signature

Compound: VVAD↓SSMES
- catalytic efficiency (kcat/KM) (Granzyme B): 116,000 M^−1 s^−1
